Tested on: HepG2 cells
Test: Fatty acid oxidation assay ([3H]palmitate), HepG2
Assay type: cell-based, human
Conditions: 10 μM, 24 h
Description: Figure 4 MD001 stimulates fatty acid oxidation in vitro. HepG2 (A), differentiated 3T3-L1 adipocyte (B), and differentiated C2C12 myotubes (C) were treated with vehicle or MD001 (10 μM) for 24 h and total RNA was isolated for cDNA synthesis. Relative gene expressions were analysed by qRT-PCR. HepG2 (D), differentiated 3T3-L1 adipocytes (E), and differentiated C2C12 myotubes (F) were treated with vehicle, MD001 (10 μM), or WY14643 (WY) (10 μM) for 24 h and the fatty acid oxidation rate was analysed as described in the Methods section. To confirm whether the fatty acid oxidation rate enhanced by MD001 is mediated by PPARα, HepG2 (G), differentiated 3T3-L1 (H), and differentiated C2C12 myotubes (I) were transfected with control or PPARα siRNA (20 nM) for 48 h, followed by treatment with vehicle, MD001 (10 μM), or WY14643 (WY) (10 μM) for 24 h. […]
For the fatty acid oxidation assay, cells were incubated in α-MEM (HyClone Laboratories, Inc., Logan, UT, USA) containing 0.1 mM palmitate (9,10-[^3H]palmitate, 5 μci/mL) (PerkinElmer, Waltham, MA, USA) and 1% bovine serum albumin for 24 h. […] After incubation, the vial was removed and radioactivity (^3H2O in water) was quantified using a liquid scintillation counter (LKB Instruments, Victoria, Australia).

In the case of `Cc1c(O)cc(O)c2c(-c3ccccc3)c(C(=O)/C=C/c3ccccc3)c(=O)oc12` [MD001], the “β-oxidation rate (fatty acid oxidation)” value was “significantly increased”.
